This passage reports metabolites formed and HLM % parent results from article PMC3972730 (Bioorganic & medicinal chemistry letters, 2010).

Series [1] in a line: Metabolite identification in human liver microsomes with NADPH. The class given is in vitro ADME. As to conditions: human liver microsomes in the presence of NADPH, LC-MS/MS. On the technique in general: Liver microsomes are a subcellular fraction often used to study metabolism.
Series [2] in a line: Microsomal stability in human liver microsomes. The format is in vitro ADME. Particulars: parent remaining after 30mins incubation with human liver microsomes.

In the case of `O=C(CCc1cnnn1-c1cccc(Cl)c1)c1ccccc1` [Compound 12e], in series [1], the metabolites formed result is “two metabolites were formed with masses equal to (parent+2) and (parent+16)”.

Regarding `CC(C)(C)C(=O)CCc1cnnn1-c1ccccc1` [Compound 13h], the HLM % parent in series [2] was 4%.
